The term EC50 denotes the concentration giving half of the maximal effect. A lower EC50 goes with higher potency in that assay.

In the assay the target is T1, IDO1 (Homo sapiens, UniProt P14902).
T1 construct: HeLa cells were treated with a test compound in the presence of IFNγ, which induces IDO1 expression; host or cells: H1-HeLa cells, IDO1 induced with IFNγ
T1 sequence (P14902 whole entry): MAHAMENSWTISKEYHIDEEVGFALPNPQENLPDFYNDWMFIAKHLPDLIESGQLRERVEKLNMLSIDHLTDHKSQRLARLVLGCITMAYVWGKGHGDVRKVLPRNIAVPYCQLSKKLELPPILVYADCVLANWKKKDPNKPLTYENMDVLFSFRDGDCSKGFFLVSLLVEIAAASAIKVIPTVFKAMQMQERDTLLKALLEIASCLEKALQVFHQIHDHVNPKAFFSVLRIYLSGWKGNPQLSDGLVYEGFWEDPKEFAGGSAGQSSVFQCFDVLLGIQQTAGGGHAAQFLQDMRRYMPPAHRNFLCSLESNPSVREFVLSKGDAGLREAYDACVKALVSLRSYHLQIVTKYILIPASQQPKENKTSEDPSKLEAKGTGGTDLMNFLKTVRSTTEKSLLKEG
Description: Cell-based (HeLa) assay for measurement of IDO1 inhibition (kynurenine levels in supernatant after IFNγ induction). The note with it: HeLa cells, IFNγ-induced IDO1, kynurenine in supernatant after 48 hour incubation; geometric mean of a minimum of four determinations. The essentials:
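HeLa cells, 1,250 per well, treated with compound (0.5% DMSO final) plus IFNγ to induce IDO1, for 48 h. Supernatant kynurenine measured by TCA hydrolysis at 60 °C, then p-dimethylaminobenzaldehyde, absorbance 480 nm. EC50 from a four-parameter fit normalized to −/+IFNγ controls; geometric mean of at least four runs.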
Molecule `O/N=C(\Nc1ccc(F)c(Cl)c1)c1ccnc2nc(C(O)C3CC3)[nH]c12` (stereo not shown) [Example 174, N-(3-Chloro-4-fluorophenyl)-2-(cyclopropyl(hydroxy)methyl)-N′-hydroxy-1H-imidazo[4,5-b]pyridine-7-carboximidamide] had an EC50 of 7090 nM.

`CC(C)(O)c1nc2nccc(/C(=N/O)Nc3ccc(F)c(Cl)c3)c2[nH]1` [Example 175, N-(3-Chloro-4-fluorophenyl)-N′-hydroxy-2-(2-hydroxypropan-2-yl)-1H-imidazo[4,5-b]pyridine-7-carboximidamide] showed an EC50 of 6420 nM.

`O/N=C(\Nc1ccc(F)c(Cl)c1)c1ccnc2nc(C(O)C(F)(F)F)[nH]c12` (stereo not shown) [Example 176, N-(3-Chloro-4-fluorophenyl)-N′-hydroxy-2-(2,2,2-trifluoro-1-hydroxyethyl)-1H-imidazo[4,5-b]pyridine-7-carboximidamide] gave an EC50 of 4200 nM.

As to `OCc1nc2nccc(/C(=N/O)Nc3ccc(F)c(Cl)c3)c2[nH]1` [Example 177, N-(3-Chloro-4-fluorophenyl)-N′-hydroxy-2-(hydroxymethyl)-1H-imidazo[4,5-b]pyridine-7-carboximidamide], the concentration for a half-maximal effect (EC50) turned out to be 1670 nM.

`CNCc1nc2nccc(/C(=N/O)Nc3ccc(F)c(Cl)c3)c2[nH]1` [Example 178, N-(3-Chloro-4-fluorophenyl)-N′-hydroxy-2-((methylamino)methyl)-1H-imidazo[4,5-b]pyridine-7-carboximidamide]: a half-maximal response (EC50) required 1480 nM.

Molecule `NCc1nc2nccc(/C(=N/O)Nc3ccc(F)c(Cl)c3)c2[nH]1` [Example 179, 2-(Aminomethyl)-N-(3-chloro-4-fluorophenyl)-N′-hydroxy-1H-imidazo[4,5-b]pyridine-7-carboximidamide] displayed a concentration giving a half-maximal response (EC50) of 7660 nM.

For the molecule `O=S(=O)(NCc1nc2nccc(/C(=N/O)Nc3ccc(F)c(Cl)c3)c2[nH]1)c1ccccc1` [Example 180, N-(3-Chloro-4-fluorophenyl)-N′-hydroxy-2-(phenylsulfonamidomethyl)-1H-imidazo[4,5-b]pyridine-7-carboximidamide], the 50% effective concentration (EC50) came out at 1410 nM.

`CS(=O)(=O)NCc1nc2nccc(/C(=N/O)Nc3ccc(F)c(Cl)c3)c2[nH]1` [Example 181, N-(3-Chloro-4-fluorophenyl)-N′-hydroxy-2-(methylsulfonamidomethyl)-1H-imidazo[4,5-b]pyridine-7-carboximidamide] had a 50% effective concentration (EC50) of 8970 nM.

In turn, `O/N=C(\Nc1ccc(F)c(Cl)c1)c1ccnc2nc(CNc3ncccn3)[nH]c12` [Example 182, N-(3-Chloro-4-fluorophenyl)-N′-hydroxy-2-((pyrimidin-2-ylamino)methyl)-1H-imidazo[4,5-b]pyridine-7-carboximidamide] had an EC50 of 6400 nM.

`OCCc1nc2nccc(/C(=N/O)Nc3ccc(F)c(Cl)c3)c2[nH]1` [Example 183, N-(3-Chloro-4-fluorophenyl)-N′-hydroxy-2-(2-hydroxyethyl)-1H-imidazo[4,5-b]pyridine-7-carboximidamide] yielded a half-maximal effective concentration (EC50) of 2400 nM.

`CN(C)CCc1nc2nccc(/C(=N/O)Nc3ccc(F)c(Cl)c3)c2[nH]1` [Example 184, N-(3-Chloro-4-fluorophenyl)-2-(2-(dimethylamino)ethyl)-N′-hydroxy-1H-imidazo[4,5-b]pyridine-7-carboximidamide] showed an EC50 of 593 nM.

With `CCN(CC)CCc1nc2nccc(/C(=N/O)Nc3ccc(F)c(Cl)c3)c2[nH]1` [Example 185, N-(3-Chloro-4-fluorophenyl)-2-(2-(diethylamino)ethyl)-N′-hydroxy-1H-imidazo[4,5-b]pyridine-7-carboximidamide], the midpoint of the response, the EC50, lay at 531 nM.

Molecule `CN(CCc1nc2nccc(/C(=N/O)Nc3ccc(F)c(Cl)c3)c2[nH]1)CC1CC1` [Example 186, N-(3-Chloro-4-fluorophenyl)-2-(2-((cyclopropylmethyl)(methyl)amino)ethyl)-N′-hydroxy-1H-imidazo[4,5-b]pyridine-7-carboximidamide] showed an EC50 of 565 nM.

Values taken from patent publication US9951065B2 (Gilead Sciences, Inc., priority 2015, dated 2018).
